Experimental data reported in patent US11628220B2, “Pharmaceutical composition and methods of uses” (Foresee Pharmaceuticals Co., Ltd., priority 2016, dated 2023).
Values after ≈ are worked out from the molar mass of the structure shown.

How the values were obtained:
Type in all cases: physicochemical
[1] = Aqueous solubility in different cyclodextrin solutions (excess compound, shaken 24 hours, HPLC); conditions: aqueous cyclodextrin solution, thermodynamic from solid, room temperature, read-out: Solubility in CD's solution (concentration of compound)
Protocol: In order to test the effect of various CDs on the aqueous solubility of compound IVE, 1 mL of each of the following aqueous solutions as described in Table 2 was prepared. […] Excess IVE was present in all samples at all times to obtain solubility. After 24-hours, the samples were centrifuged. […] The size of the compound may allow it to form an inclusion complex, resulting in a higher aqueous solubility.
In order to test the effect of various CDs on the aqueous solubility of compound IVP, 1 mL of each of the following aqueous solutions as described in Table 3 was prepared. […] Excess IVP was present in all samples at all times. After 24-hours, the samples were centrifuged. […] The size of the compound may allow it to form an inclusion complex, resulting in a higher aqueous solubility.
In order to test the effect of various CDs on the aqueous solubility of compound IVO, 1 mL of each of the following aqueous solutions as described in Table 4 was prepared. […] Excess IVO was present in all samples at all times. After 24-hours, the samples were centrifuged. […] The size of the compound may allow it to form an inclusion body complex, resulting in a higher aqueous solubility.
In order to test the effect of various CDs on the aqueous solubility of compound IVQ, 1 mL of each of the following aqueous solutions as described in Table 5 was prepared. […] Excess IVQ was present in all samples at all times. After 24-hours, the samples were centrifuged. […] The size of the compound may allow it to form an inclusion body complex, resulting in a higher aqueous solubility.

[2] = Comparable solubility test for IVO ASD-01 in DI water; conditions: 1.5 ml DI water
Protocol: The samples were centrifuged at 3 and 24 hours.

[3] = Solubility of compound IVO in solutions containing L-Arginine; conditions: thermodynamic from solid
From the text: After 24-hours, the samples were centrifuged. […] One possibility is that L-Arginine may help promote the formation of inclusion complex between IVO and MBCD.

With `Cc1cccc(COc2ccc(Sc3ccoc3C3NC(=O)NC3=O)cc2)c1` (stereo not drawn) [IVO, 5-{3-[4-(3-Methyl-benzyloxy)phenylthio]fur-2-yl}imidazolidine-2,4-dione] the solubility at 24 h ([1]; aqueous with cosolvent or surfactant or cyclodextrin, ACD 5 mg/ml) was 37 µg/mL (≈ 93.8 µM), the solubility at 24 h ([1]; aqueous with cosolvent or surfactant or cyclodextrin, ACD 10 mg/ml) was 30 µg/mL (≈ 76.1 µM) and the solubility at 24 h ([1]; aqueous with cosolvent or surfactant or cyclodextrin, ACD 15 mg/ml) was 26 µg/mL (≈ 65.9 µM). It also gave a solubility at 24 h ([1]; aqueous with cosolvent or surfactant or cyclodextrin, ACD 20 mg/ml) of 13 µg/mL (≈ 33 µM), a solubility at 24 h ([1]; aqueous with cosolvent or surfactant or cyclodextrin, ACD 30 mg/ml) of 10 µg/mL (≈ 25.4 µM) and a solubility at 24 h ([1]; aqueous with cosolvent or surfactant or cyclodextrin, ACD 40 mg/ml) of 17 µg/mL (≈ 43.1 µM). For the same compound, the solubility at 24 h ([1]; aqueous with cosolvent or surfactant or cyclodextrin, HPBCD 25 mg/ml) was 37 µg/mL (≈ 93.8 µM), the solubility at 24 h ([1]; aqueous with cosolvent or surfactant or cyclodextrin, HPBCD 50 mg/ml) was 83 µg/mL (≈ 210 µM) and the solubility at 24 h ([1]; aqueous with cosolvent or surfactant or cyclodextrin, HPBCD 75 mg/ml) was 108 µg/mL (≈ 274 µM). For the same compound, the solubility at 24 h ([1]; aqueous with cosolvent or surfactant or cyclodextrin, HPBCD 100 mg/ml) was 184 µg/mL (≈ 466 µM), the solubility at 24 h ([1]; aqueous with cosolvent or surfactant or cyclodextrin, HPBCD 150 mg/ml) was 312 µg/mL (≈ 791 µM) and the solubility at 24 h ([1]; aqueous with cosolvent or surfactant or cyclodextrin, HPBCD 200 mg/ml) was 467 µg/mL (≈ 1180 µM). It also gave a solubility at 24 h ([1]; aqueous with cosolvent or surfactant or cyclodextrin, HPGCD 25 mg/ml) of 9 µg/mL (≈ 22.8 µM), a solubility at 24 h ([1]; aqueous with cosolvent or surfactant or cyclodextrin, HPGCD 50 mg/ml) of 16 µg/mL (≈ 40.6 µM) and a solubility at 24 h ([1]; aqueous with cosolvent or surfactant or cyclodextrin, HPGCD 75 mg/ml) of 6 µg/mL (≈ 15.2 µM). For the same compound, the solubility at 24 h ([1]; aqueous with cosolvent or surfactant or cyclodextrin, HPGCD 100 mg/ml) was 2 µg/mL (≈ 5.07 µM), the solubility at 24 h ([1]; aqueous with cosolvent or surfactant or cyclodextrin, HPGCD 150 mg/ml) was 4 µg/mL (≈ 10.1 µM) and the solubility at 24 h ([1]; aqueous with cosolvent or surfactant or cyclodextrin, HPGCD 200 mg/ml) was 3 µg/mL (≈ 7.61 µM). The solubility at 24 h ([1]; aqueous with cosolvent or surfactant or cyclodextrin, MBCD 25 mg/ml) was 244 µg/mL (≈ 619 µM), the solubility at 24 h ([1]; aqueous with cosolvent or surfactant or cyclodextrin, MBCD 50 mg/ml) was 477 µg/mL (≈ 1210 µM) and the solubility at 24 h ([1]; aqueous with cosolvent or surfactant or cyclodextrin, MBCD 75 mg/ml) was 673 µg/mL (≈ 1710 µM). For the same compound, the solubility at 24 h ([1]; aqueous with cosolvent or surfactant or cyclodextrin, MBCD 100 mg/ml) was 1070 µg/mL (≈ 2700 µM), the solubility at 24 h ([1]; aqueous with cosolvent or surfactant or cyclodextrin, MBCD 150 mg/ml) was 1700 µg/mL (≈ 4300 µM) and the solubility at 24 h ([1]; aqueous with cosolvent or surfactant or cyclodextrin, MBCD 200 mg/ml) was 1780 µg/mL (≈ 4520 µM). For the same compound, the solubility at 24 h ([1]; aqueous with cosolvent or surfactant or cyclodextrin, SBEBCD 25 mg/ml) was 94 µg/mL (≈ 238 µM), the solubility at 24 h ([1]; aqueous with cosolvent or surfactant or cyclodextrin, SBEBCD 50 mg/ml) was 116 µg/mL (≈ 294 µM) and the solubility at 24 h ([1]; aqueous with cosolvent or surfactant or cyclodextrin, SBEBCD 75 mg/ml) was 156 µg/mL (≈ 395 µM). The solubility at 24 h ([1]; aqueous with cosolvent or surfactant or cyclodextrin, SBEBCD 100 mg/ml) was 174 µg/mL (≈ 441 µM), the solubility at 24 h ([1]; aqueous with cosolvent or surfactant or cyclodextrin, SBEBCD 150 mg/ml) was 315 µg/mL (≈ 799 µM) and the solubility at 24 h ([1]; aqueous with cosolvent or surfactant or cyclodextrin, SBEBCD 200 mg/ml) was 761 µg/mL (≈ 1930 µM). It also gave a solubility at 24 h ([1]; water, ACD 0 mg/ml) of 26 µg/mL (≈ 65.9 µM), a solubility at 24 h ([1]; water, HPBCD 0 mg/ml) of 26 µg/mL (≈ 65.9 µM) and a solubility at 24 h ([1]; water, HPGCD 0 mg/ml) of 26 µg/mL (≈ 65.9 µM). The solubility at 24 h ([1]; water, MBCD 0 mg/ml) was 26 µg/mL (≈ 65.9 µM), the solubility at 24 h ([1]; water, SBEBCD 0 mg/ml) was 26 µg/mL (≈ 65.9 µM) and the “pH at 24 hrs equilibrium” value ([2]; 24 hrs) was 8.09. For the same compound, the solubility at 24 h ([2]; pH 8.09, thermodynamic from solid, room temperature, 24 hrs) was 11 µg/mL (≈ 27.9 µM), the solubility at 3 h ([2]; thermodynamic from solid, room temperature, 3 hrs) was 2 µg/mL (≈ 5.07 µM) and the solubility at 24 h ([3]; DI water, water, L-Arginine 0 % w/w in DI water) was 1.15 µg/mL (≈ 2.91 µM). The solubility at 24 h ([3]; aqueous L-Arginine solution in DI water, aqueous with cosolvent or surfactant or cyclodextrin, L-Arginine 0.15 % w/w in DI water) was 11.1 µg/mL (≈ 28.1 µM), the solubility at 24 h ([3]; aqueous L-Arginine solution in DI water, aqueous with cosolvent or surfactant or cyclodextrin, L-Arginine 0.31 % w/w in DI water) was 15.1 µg/mL (≈ 38.3 µM) and the solubility at 24 h ([3]; aqueous L-Arginine solution in DI water, aqueous with cosolvent or surfactant or cyclodextrin, L-Arginine 0.5 % w/w in DI water) was 25.3 µg/mL (≈ 64.2 µM). The solubility at 24 h ([3]; aqueous L-Arginine solution in DI water, aqueous with cosolvent or surfactant or cyclodextrin, L-Arginine 0.63 % w/w in DI water) was 34.2 µg/mL (≈ 86.7 µM), the solubility at 24 h ([3]; aqueous L-Arginine solution in DI water, aqueous with cosolvent or surfactant or cyclodextrin, L-Arginine 1.25 % w/w in DI water) was 46.8 µg/mL (≈ 119 µM) and the solubility at 24 h ([3]; aqueous L-Arginine solution in DI water, aqueous with cosolvent or surfactant or cyclodextrin, L-Arginine 2.5 % w/w in DI water) was 85.8 µg/mL (≈ 218 µM).
